Marks after values point to notes of the source that are not given here.
Key:
[1] = Stability of S-59 in InterSol PAS under ambient light (HPLC); assay type: physicochemical; conditions: for S-59 UV peak area (HPLC) / S-59 concentration (HPLC): 230 μM in InterSol PAS, room temp
Description: Initial studies evaluated stability of the pathogen inactivation compound amotosalen (S-59) that was formulated in a platelet additive solution (PAS). A 230 μM solution of psoralen compound S-59 (Irsch et al., Transfus Med Hemother, 38: 19-31 (2011)) was prepared in the commercially available PAS solution InterSol® (Fenwal Inc.) and maintained at room temperature under ambient light conditions. HPLC analysis was performed on samples at times listed in Table 1 for both S-59 and photoproducts. […] S-59 data are shown as both concentration (μM), as well as peak area (S-59 UV) for relative comparison to any photoproducts detected with HPLC (Table 1). Peak D and Peak E photoproducts also were observed by 22 hr and 72 hr, respectively, as well as process impurity decomposition product 4′-HMT, with peak area values indicated (Table 1).

calicivirus FCV = assay: FCV inactivation with 150 μM S-59 after pre-incubation in PAS/Plasma, plaque assay; assay type: cell-based, feline calicivirus (FCV); conditions: for Normalized FCV Log Inactivation/mL / FCV Log Inactivation/mL / FCV Titer, 3J TEST: S-59 ~150 μM, UVA ~3 J/cm^2; for Normalized FCV Log Inactivation/mL: normalized to the FCV pool titer; for FCV Log Inactivation/mL: vs 0J control of same time; for FCV Titer, 3J TEST: platelets in PAS/Plasma 65%/35%
Description: From the results of Examples 1 and 2, showing that amotosalen is stable in PAS and PAS/Plasma, an additional study was performed that evaluated the level of inactivation of the calicivirus FCV with S-59 after extended incubation in PAS/Plasma. In this study, platelets in PAS/Plasma (65%/35%) were pooled to approximately 1320 mL, with approximately 16×10^11 total platelets, and spiked with a stock of the calicivirus FCV at a 1:100 dilution. A sample was taken from the FCV-spiked platelet pool to determine initial titer. The FCV-spiked platelets were then split into 5 units, at approximately 260 mL each, with approximately 3.2×10^11 platelets per unit. Each unit was dosed with S-59 at approximately 150 μM concentration, which is the concentration used commercially in the INTERCEPT® Blood System for pathogen inactivation treatment. Following the addition of S-59, the platelet units were incubated for 0, 2, 4, 8 or 24 hr. A control sample was taken at each time point for virus titer determination and HPLC analysis of S-59 concentration pre-UVA treatment, followed by UVA light exposure at ˜3 J/cm^2 to complete the photochemical treatment process for all test samples. Following UVA treatment, the control and test samples were evaluated for inactivation of FCV using a standard virological plaque assay.

FCV = FCV inactivation with decreasing amounts of S-59 after pre-incubation, plaque assay; assay type: cell-based, feline calicivirus (FCV); conditions: for FCV titer after UVA: UVA ~3 J/cm^2; for FCV log inactivation: vs 0 hr control titer 5.84
Description: An additional study was performed to evaluate the level of FCV inactivation with decreasing amounts of S-59 after extended incubation (e.g., pre-incubation) in PAS/Plasma. In this study, platelets in PAS/Plasma (65%/35%) were spiked with a stock of FCV at a 1:100 dilution. The FCV-spiked platelets were then split into 16 separate test units. Each unit was dosed with S-59 at approximately 150 μM, 90 μM, 30 μM or 15 μM concentration. Following the addition of S-59 in one of four dosing groups, the platelet units in each dosing group were incubated for 0, 4, 8 or 24 hr prior to illumination. A control sample was taken from each unit for virus titer determination and HPLC analysis of S-59 concentration pre-UVA treatment, followed by UVA light exposure at ˜3 J/cm^2 for photochemical treatment of the test samples. Following UVA treatment, the control and test samples were evaluated for inactivation of FCV using a standard virological plaque assay. […] Control titer at 0 hr pool used for all log inactivation calculations (5.84 log/mL).

[2] = S-59 15 μM, pre-incubation 0 hr
[3] = S-59 15 μM, pre-incubation 4 hr
[4] = S-59 15 μM, pre-incubation 8 hr
[5] = S-59 15 μM, pre-incubation 24 hr
[6] = S-59 30 μM, pre-incubation 0 hr
[7] = S-59 30 μM, pre-incubation 4 hr
[8] = S-59 30 μM, pre-incubation 8 hr
[9] = S-59 30 μM, pre-incubation 24 hr
[10] = S-59 90 μM, pre-incubation 0 hr
[11] = S-59 90 μM, pre-incubation 4 hr
[12] = S-59 90 μM, pre-incubation 8 hr
[13] = S-59 90 μM, pre-incubation 24 hr
[14] = S-59 150 μM, pre-incubation 0 hr
[15] = S-59 150 μM, pre-incubation 4 hr
[16] = S-59 150 μM, pre-incubation 8 hr
[17] = S-59 150 μM, pre-incubation 24 hr

**Q.** What does the source list for `Cc1oc2c(C)c3oc(=O)cc(C)c3cc2c1COCCN` [S-59, 3-(2-aminoethoxymethyl)-2,5,9-trimethylfuro[3,2-g]chromen-7-one]?
**A.** S-59 UV peak area (HPLC) ([1]; 5 hr): 3593.309; S-59 concentration (HPLC) ([1]; 5 hr): 230.62 µM; S-59 UV peak area (HPLC) ([1]; 6 hr): 3575.825; S-59 concentration (HPLC) ([1]; 6 hr): 229.50 µM; S-59 UV peak area (HPLC) ([1]; 22 hr): 3485.467; S-59 concentration (HPLC) ([1]; 22 hr): 223.71 µM; S-59 UV peak area (HPLC) ([1]; 30 hr): 3529.854; S-59 concentration (HPLC) ([1]; 30 hr): 226.56 µM; S-59 UV peak area (HPLC) ([1]; 47 hr): 3486.293; S-59 concentration (HPLC) ([1]; 47 hr): 223.76 µM; S-59 UV peak area (HPLC) ([1]; 56 hr): 3440.455; S-59 concentration (HPLC) ([1]; 56 hr): 220.82 µM; S-59 UV peak area (HPLC) ([1]; 72 hr): 3534.894; S-59 concentration (HPLC) ([1]; 72 hr): 226.88 µM; S-59 UV peak area (HPLC) ([1]; 78 hr): 3485.093; S-59 concentration (HPLC) ([1]; 78 hr): 223.69 µM; S-59 UV peak area (HPLC) ([1]; T 0): 3700.439; S-59 concentration (HPLC) ([1]; T 0): 237.49 µM; loss of S-59 ([1]; InterSol PAS, at 78 hours): < 6%; level of FCV inactivation (calicivirus FCV; S-59/PAS/Plasma incubated 2 or more hours prior to UVA exposure): below the limit of detection; Normalized FCV Log Inactivation/mL (calicivirus FCV; pre-incubation T = 0 hr): 1.4 Log/mL; FCV Log Inactivation/mL (calicivirus FCV; pre-incubation T = 0 hr): 1.2 Log/mL; Normalized FCV Log Inactivation/mL (calicivirus FCV; pre-incubation T = 2 hr): >5.8 Log/mL; FCV Log Inactivation/mL (calicivirus FCV; pre-incubation T = 2 hr): >5.4 Log/mL; Normalized FCV Log Inactivation/mL (calicivirus FCV; pre-incubation T = 4 hr): >5.8 Log/mL; FCV Log Inactivation/mL (calicivirus FCV; pre-incubation T = 4 hr): >5.7 Log/mL; Normalized FCV Log Inactivation/mL (calicivirus FCV; pre-incubation T = 8 hr): >5.8 Log/mL; FCV Log Inactivation/mL (calicivirus FCV; pre-incubation T = 8 hr): >5.2 Log/mL; Normalized FCV Log Inactivation/mL (calicivirus FCV; pre-incubation T = 24 hr): >5.8 Log/mL; FCV Log Inactivation/mL (calicivirus FCV; pre-incubation T = 24 hr): >5.1 Log/mL; FCV Titer, 3J TEST (calicivirus FCV; pre-incubation T = 0 hr): 4.6 Log PFU/mL; FCV Titer, 3J TEST (calicivirus FCV; pre-incubation T = 2 hr): <0.22* Log PFU/mL; FCV Titer, 3J TEST (calicivirus FCV; pre-incubation T = 4 hr): <0.22* Log PFU/mL; FCV Titer, 3J TEST (calicivirus FCV; pre-incubation T = 8 hr): <0.22* Log PFU/mL; FCV Titer, 3J TEST (calicivirus FCV; pre-incubation T = 24 hr): <0.22* Log PFU/mL; FCV titer after UVA (FCV; [2]): 5.65 log PFU/mL; FCV log inactivation (FCV; [2]): 0.19 log/mL; FCV titer after UVA (FCV; [3]): 4.49 log PFU/mL; FCV log inactivation (FCV; [3]): 1.35 log/mL; FCV titer after UVA (FCV; [4]): 2.22 log PFU/mL; FCV log inactivation (FCV; [4]): 3.62 log/mL; FCV titer after UVA (FCV; [5]): 0.52 log PFU/mL; FCV log inactivation (FCV; [5]): 5.32 log/mL; FCV titer after UVA (FCV; [6]): 4.91 log PFU/mL; FCV log inactivation (FCV; [6]): 0.93 log/mL; FCV titer after UVA (FCV; [7]): 2.00 log PFU/mL; FCV log inactivation (FCV; [7]): 3.84 log/mL; FCV titer after UVA (FCV; [8]): <1.22 log PFU/mL; FCV log inactivation (FCV; [8]): 4.62 log/mL; FCV titer after UVA (FCV; [9]): <−0.22 log PFU/mL; FCV log inactivation (FCV; [9]): 5.62 log/mL; FCV titer after UVA (FCV; [10]): 4.90 log PFU/mL; FCV log inactivation (FCV; [10]): 0.94 log/mL; FCV titer after UVA (FCV; [11]): <0.22 log PFU/mL; FCV log inactivation (FCV; [11]): 5.62 log/mL; FCV titer after UVA (FCV; [12]): <−0.48 log PFU/mL; FCV log inactivation (FCV; [12]): 5.84 log/mL; FCV titer after UVA (FCV; [13]): <−0.30 log PFU/mL; FCV log inactivation (FCV; [13]): 5.84 log/mL; FCV titer after UVA (FCV; [14]): 4.33 log PFU/mL; FCV log inactivation (FCV; [14]): 1.51 log/mL; FCV titer after UVA (FCV; [15]): <0.22 log PFU/mL; FCV log inactivation (FCV; [15]): 5.62 log/mL; FCV titer after UVA (FCV; [16]): <−0.48 log PFU/mL; FCV log inactivation (FCV; [16]): 5.84 log/mL; FCV titer after UVA (FCV; [17]): <−0.48 log PFU/mL; FCV log inactivation (FCV; [17]): 5.84 log/mL; FCV inactivation (FCV; pre-incubation 4, 8 or 24 hours at 150 μM and 90 μM, 8 or 24 hours at 30 μM, 24 hours at 15 μM): greater than 4 logs; FCV inactivation (FCV; pre-incubation 4 hr, 30 μM S-59): ~4 logs; FCV inactivation (FCV; pre-incubation 8 hr, 15 μM S-59): greater than 3.5 logs
